The first experiment has as its target His-tagged CRBN-DDB1 complex (Homo sapiens, UniProt Q96SW2). The experiment in a line: Time-Resolved Fluorescence Resonance Energy Transfer (TR-FRET / HTRF) CRBN binding assay, displacement of Cy5-labeled thalidomide. The settings on record: His-CRBN-DDB1, Cy5-thalidomide 8 nM, 1 hour room temperature. On the technique in general: TR-FRET usually uses a lanthanide donor and a delayed reading to cut background.
His-tagged CRBN-DDB1 complex, sequence (Q96SW2 whole entry): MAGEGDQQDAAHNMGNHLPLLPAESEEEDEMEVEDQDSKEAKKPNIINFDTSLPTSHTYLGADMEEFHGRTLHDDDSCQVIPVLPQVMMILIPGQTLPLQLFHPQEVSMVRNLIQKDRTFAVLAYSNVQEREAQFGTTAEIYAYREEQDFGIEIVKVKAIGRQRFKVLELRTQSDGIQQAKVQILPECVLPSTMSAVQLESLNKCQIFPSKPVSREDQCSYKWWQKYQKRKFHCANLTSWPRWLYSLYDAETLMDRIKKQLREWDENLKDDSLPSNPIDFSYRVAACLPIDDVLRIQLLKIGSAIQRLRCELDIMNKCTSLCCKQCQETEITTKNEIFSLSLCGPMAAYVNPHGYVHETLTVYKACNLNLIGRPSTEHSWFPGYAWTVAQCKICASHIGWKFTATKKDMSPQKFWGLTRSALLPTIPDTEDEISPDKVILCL
His-tagged CRBN-DDB1 complex, sequence (Q16531 whole entry partner): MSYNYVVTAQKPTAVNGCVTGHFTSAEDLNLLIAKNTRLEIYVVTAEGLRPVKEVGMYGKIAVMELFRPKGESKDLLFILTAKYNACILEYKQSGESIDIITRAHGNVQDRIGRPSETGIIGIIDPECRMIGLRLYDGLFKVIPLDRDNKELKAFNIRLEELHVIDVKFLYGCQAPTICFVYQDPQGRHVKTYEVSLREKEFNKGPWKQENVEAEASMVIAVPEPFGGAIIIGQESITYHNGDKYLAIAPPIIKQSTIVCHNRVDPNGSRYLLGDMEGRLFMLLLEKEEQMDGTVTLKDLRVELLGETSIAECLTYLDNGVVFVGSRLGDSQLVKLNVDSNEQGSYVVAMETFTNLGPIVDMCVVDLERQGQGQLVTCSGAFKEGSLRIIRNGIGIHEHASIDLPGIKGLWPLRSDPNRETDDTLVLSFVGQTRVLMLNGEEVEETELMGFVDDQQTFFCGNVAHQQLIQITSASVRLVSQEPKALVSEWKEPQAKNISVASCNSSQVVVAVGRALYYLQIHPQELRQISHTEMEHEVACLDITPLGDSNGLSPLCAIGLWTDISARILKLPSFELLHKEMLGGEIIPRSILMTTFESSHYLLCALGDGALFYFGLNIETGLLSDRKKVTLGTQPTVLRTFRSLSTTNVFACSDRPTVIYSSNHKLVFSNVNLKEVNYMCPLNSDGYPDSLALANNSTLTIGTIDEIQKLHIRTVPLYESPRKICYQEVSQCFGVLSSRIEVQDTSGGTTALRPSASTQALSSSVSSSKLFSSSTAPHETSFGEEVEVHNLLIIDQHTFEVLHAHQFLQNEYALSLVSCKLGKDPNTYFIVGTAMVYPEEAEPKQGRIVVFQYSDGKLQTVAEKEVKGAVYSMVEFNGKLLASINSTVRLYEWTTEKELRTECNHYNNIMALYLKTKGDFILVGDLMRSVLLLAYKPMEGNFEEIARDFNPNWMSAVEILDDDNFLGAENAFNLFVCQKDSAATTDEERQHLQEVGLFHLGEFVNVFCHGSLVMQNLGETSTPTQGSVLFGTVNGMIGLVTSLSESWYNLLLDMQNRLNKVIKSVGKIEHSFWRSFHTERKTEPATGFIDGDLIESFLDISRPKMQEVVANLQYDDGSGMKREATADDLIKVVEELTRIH
CRBN-DDB1, sequence (Q96SW2 whole entry): as the sequence (Q96SW2 whole entry) above
CRBN-DDB1, sequence (Q16531 whole entry partner): as the sequence (Q16531 whole entry partner) above
`O=C1Cc2nccc(Oc3ccccc3)c2C(=O)N1` [Compound I-236] returned a 50% inhibitory concentration (IC50) greater than 100 µM.

`CC(C)(C)OC(=O)NCCCCCCCC#Cc1cccc(Oc2cccc3c2C(=O)NC(=O)C3=O)c1` [Compound I-237] returned an IC50 of less than 10 µM.

`O=C1NC(=O)c2cc(Oc3ccccc3)ccc2C1=O` [Compound I-238] displayed an IC50 of 30 to 100 µM.

Regarding `CC(C)(C)OC(=O)NCCCC#Cc1ccc(Oc2cccc3c2C(=O)NC(=O)C3=O)cc1` [Compound I-239], the IC50 is less than 10 µM.

Consider `CC(C)(C)OC(=O)NCCCCCCCC#Cc1ccc(Oc2cccc3c2C(=O)NC(=O)C3=O)cc1` [Compound I-240], for which the IC50 is less than 10 µM.

As to `CC(C)(C)OC(=O)NCCCCCCCCCc1ccc(Oc2cccc3c2C(=O)NC(=O)C3=O)cc1` [Compound I-241], the IC50 is less than 10 µM.

`CC(C)(C)OC(=O)NCCCCCCCC#Cc1ccccc1Oc1cccc2c1C(=O)NC(=O)C2=O` [Compound I-243] had an IC50 of less than 10 µM.

For the compound `NCC#Cc1cccc(Oc2cccc3c2C(=O)NC(=O)C3)c1` [Compound I-244], the IC50 lay within 10 to 30 µM.

The compound `NCCCC#Cc1cccc(Oc2cccc3c2C(=O)NC(=O)C3)c1` [Compound I-245] had a half-maximal inhibitory concentration (IC50) of less than 10 µM.

Consider `NCCCCCc1cccc(Oc2cccc3c2C(=O)NC(=O)C3)c1` [Compound I-246], for which the IC50 was less than 10 µM.

`NCCCCCC#Cc1cccc(Oc2cccc3c2C(=O)NC(=O)C3)c1` [Compound I-247] showed an IC50 of less than 10 µM.

`NCCCCCCCC#Cc1cccc(Oc2cccc3c2C(=O)NC(=O)C3)c1` [Compound I-248] had an IC50 greater than 100 µM.

On to `NCCCCCc1ccc(Oc2cccc3c2C(=O)NC(=O)C3)cc1` [Compound I-249], for which the IC50 is 10 to 30 µM.

As to `NCCCCCCCc1ccc(Oc2cccc3c2C(=O)NC(=O)C3)cc1` [Compound I-250], the IC50 is less than 10 µM.

As to `NCCCCCCCCCc1ccc(Oc2cccc3c2C(=O)NC(=O)C3)cc1` [Compound I-251], the IC50 is less than 10 µM.

Compound `CC(C)(C)OC(=O)NCCCCCCCc1ccccc1Oc1cccc2c1C(=O)NC(=O)C2=O` [Compound I-252] gave an IC50 of 10 to 30 µM.

The compound `Cc1ccccc1Oc1cccc2c1C(=O)NC(=O)C2=O` [Compound I-253] gave an IC50 of 10 to 30 µM.

As for `NCCCCCc1ccccc1Oc1cccc2c1C(=O)NC(=O)C2` [Compound I-254], the IC50 was in the range of 10 to 30 µM.

Compound `NCCCCCCCCCc1ccccc1Oc1cccc2c1C(=O)NC(=O)C2` [Compound I-255] yielded an IC50 of 10 to 30 µM.

As for `O=C1Cc2cnn(Cc3ccccc3)c2C(=O)N1` [Compound I-257], the IC50 was greater than 100 µM.

The compound `O=C1Cc2cccc(Cc3ccccc3)c2C(=O)N1` [Compound I-258] displayed an IC50 greater than 100 µM.

Compound `O=C1Cc2cccc(Oc3ccccn3)c2C(=O)N1` [Compound I-259] came in with an IC50 greater than 100 µM.

`CN1C(=O)Cc2cccc(Oc3ccccc3)c2C1=O` [Compound I-260] came in with an IC50 greater than 100 µM.

As to `NCCCC#Cc1ccc(Oc2cccc3c2C(=O)NC(=O)C3=O)cc1` [Compound I-264], the half-inhibitory concentration (IC50) was less than 10 µM.

The compound `NCCCC#Cc1ccc(Oc2cccc3c2C(=O)NC(=O)C3)cc1` [Compound I-265] displayed a concentration for half-maximal inhibition (IC50) of less than 10 µM.

The next experiment addresses CRBN-DDB1 (Homo sapiens, UniProt Q96SW2). Put plainly: Fluorescence Polarization (FP) CRBN binding assay, probe TM-493 (FAM-BB-100). The following applies: CRBN-DDB1, TM-493 probe, 60 min room temperature. On the technique in general: In fluorescence polarisation assays a small probe gives low polarisation when free and higher when bound to something large.
Compound `O=C1Cc2nccc(Oc3ccccc3)c2C(=O)N1` [Compound I-236] had an IC50 greater than 100 µM.

For `CC(C)(C)OC(=O)NCCCCCCCC#Cc1cccc(Oc2cccc3c2C(=O)NC(=O)C3=O)c1` [Compound I-237], the 50% inhibitory concentration (IC50) lay in the range of 10 to 30 µM.

On to `O=C1NC(=O)c2cc(Oc3ccccc3)ccc2C1=O` [Compound I-238], for which the IC50 lay in the range of 30 to 100 µM.

As for `CC(C)(C)OC(=O)NCCCC#Cc1ccc(Oc2cccc3c2C(=O)NC(=O)C3=O)cc1` [Compound I-239], the IC50 was less than 10 µM.

Regarding `CC(C)(C)OC(=O)NCCCCCCCC#Cc1ccc(Oc2cccc3c2C(=O)NC(=O)C3=O)cc1` [Compound I-240], the IC50 was in the range of 10 to 30 µM.

Compound `CC(C)(C)OC(=O)NCCCCCCCCCc1ccc(Oc2cccc3c2C(=O)NC(=O)C3=O)cc1` [Compound I-241] returned a 50% inhibitory concentration (IC50) of 30 to 100 µM.

For the compound `CC(C)(C)OC(=O)NCCCCCCCC#Cc1ccccc1Oc1cccc2c1C(=O)NC(=O)C2=O` [Compound I-243], the IC50 lay within 30 to 100 µM.

With `NCC#Cc1cccc(Oc2cccc3c2C(=O)NC(=O)C3)c1` [Compound I-244], the half-inhibitory concentration (IC50) lay in the range of 30 to 100 µM.

Compound `NCCCC#Cc1cccc(Oc2cccc3c2C(=O)NC(=O)C3)c1` [Compound I-245] had an IC50 of 10 to 30 µM.

The compound `NCCCCCc1cccc(Oc2cccc3c2C(=O)NC(=O)C3)c1` [Compound I-246] registered an IC50 of less than 10 µM.

As for `NCCCCCC#Cc1cccc(Oc2cccc3c2C(=O)NC(=O)C3)c1` [Compound I-247], the IC50 fell in the range of 10 to 30 µM.

Regarding `NCCCCCCCC#Cc1cccc(Oc2cccc3c2C(=O)NC(=O)C3)c1` [Compound I-248], the half-maximal inhibitory concentration (IC50) lay in the range of 30 to 100 µM.

In the case of `NCCCCCc1ccc(Oc2cccc3c2C(=O)NC(=O)C3)cc1` [Compound I-249], the IC50 was in the range of 10 to 30 µM.

`NCCCCCCCc1ccc(Oc2cccc3c2C(=O)NC(=O)C3)cc1` [Compound I-250] had an IC50 of less than 10 µM.

`NCCCCCCCCCc1ccc(Oc2cccc3c2C(=O)NC(=O)C3)cc1` [Compound I-251] yielded an IC50 of less than 10 µM.

`CC(C)(C)OC(=O)NCCCCCCCc1ccccc1Oc1cccc2c1C(=O)NC(=O)C2=O` [Compound I-252]: the IC50 lay in the range of 30 to 100 µM.

On to `Cc1ccccc1Oc1cccc2c1C(=O)NC(=O)C2=O` [Compound I-253], for which the IC50 was less than 10 µM.

Consider `NCCCCCc1ccccc1Oc1cccc2c1C(=O)NC(=O)C2` [Compound I-254], for which the IC50 fell in the range of 30 to 100 µM.

The compound `NCCCCCCCCCc1ccccc1Oc1cccc2c1C(=O)NC(=O)C2` [Compound I-255] registered an IC50 of 10 to 30 µM.

Consider `O=C1Cc2cnn(Cc3ccccc3)c2C(=O)N1` [Compound I-257], for which the IC50 is greater than 100 µM.

`O=C1Cc2cccc(Cc3ccccc3)c2C(=O)N1` [Compound I-258] registered an IC50 of 30 to 100 µM.

For the compound `O=C1Cc2cccc(Oc3ccccn3)c2C(=O)N1` [Compound I-259], the IC50 fell in the range of 10 to 30 µM.

Compound `CN1C(=O)Cc2cccc(Oc3ccccc3)c2C1=O` [Compound I-260] registered a half-maximal inhibitory concentration (IC50) greater than 100 µM.

`NCCCC#Cc1ccc(Oc2cccc3c2C(=O)NC(=O)C3=O)cc1` [Compound I-264]: the IC50 was 10 to 30 µM.

As for `NCCCC#Cc1ccc(Oc2cccc3c2C(=O)NC(=O)C3)cc1` [Compound I-265], the IC50 was less than 10 µM.

As usually defined, the IC50 is the concentration that gives 50% inhibition.

For the origin of these results see patent publication US20220281831A1, “FUSED-GLUTARIMIDE CRBN LIGANDS AND USES THEREOF” (Kymera Therapeutics, Inc., priority 2019, published 2022).
